The test system of test [1] is A-431. Description: Antitumor activity against human A-431 cells xenografted in Swiss nu/nu mouse assessed as reduction in c-fos mRNA expression at 200 mg/kg measured after 36 hrs by RT-PCR analysis relative to control. Details: scale not given: the % may be the effect or the level left. Format: functional. (A xenograft is tissue or cells of one species grown in another, often human tumour cells in immunodeficient mice.)

The test system of test [2] is A-431. In words: Antitumor activity against human A-431 cells xenografted in Swiss nu/nu mouse assessed as reduction in c-fos mRNA expression at 50 mg/kg measured after 36 hrs by RT-PCR analysis relative to control. Format: functional. Set-up: scale not given: the % may be the effect or the level left.
Test [3] has as its system A-431. In words: Antitumor activity against human A-431 cells xenografted in Swiss nu/nu mouse assessed as c-fos mRNA expression at 50 mg/kg measured after 6 to 36 hrs by RT-PCR analysis relative to control. Format: functional. The settings on record: time 6-36 hrs.
The subject of test [4] is A-431. In words: Antitumor activity against human A-431 cells xenografted in po dosed Swiss nu/nu mouse assessed as reduction in c-fos mRNA expression measured after 4 days by RT-PCR analysis. Format: functional, organism-based. As to conditions: dose 12.5-200 mg/kg, time 4.0 day.

With `COc1cc2ncnc(Nc3ccc(F)c(Cl)c3)c2cc1OCCCN1CCOCC1` [GEFITINIB], the Activity in the test on A-431 [1] is greater than 99%; with A-431 [2], 94%; in the test on A-431 [3], 5%; in the test with A-431 [4] it was “Dose-Dependent Effect”.

(Values after ChEMBL document CHEMBL5653594, “ZD1839 (Iressa): an orally active inhibitor of epidermal growth factor signaling with potential for cancer therapy” (Cancer Res, 2002).)
